According to ChEMBL document CHEMBL1909538, “Iodine-catalyzed conjugate addition of indoles onto en-1,4-dione: a novel synthesis of 3-(1-(1H-indol-3-yl)-2-oxo-2-phenylethyl)indolin-2-ones as antibacterial and antifungal agents” (2011):
Converted amounts (≈) assume the structure as drawn.

Assays:
[1] = test system: Pseudomonas aeruginosa; experiment: Antimicrobial activity against Pseudomonas aeruginosa MTCC 741 by broth dilution method; type: functional
[2] = test system: Diutina rugosa; experiment: Antifungal activity against Candida rugosa at 100 ug after 48 hrs by agar well diffusion method; type: functional; details: read-out: DIZ
[3] = test system: Saccharomyces cerevisiae; experiment: Antifungal activity against Saccharomyces cerevisiae MTCC 36 at 150 ug after 48 hrs by agar well diffusion method; type: functional; details: MTCC 36, 48 h, read-out: DIZ
[4] = test system: Staphylococcus epidermidis; experiment: Antimicrobial activity against Staphylococcus epidermidis by broth dilution method; type: functional
[5] = test system: Diutina rugosa; experiment: Antifungal activity against Candida rugosa at 150 ug after 48 hrs by agar well diffusion method; type: functional; details: read-out: DIZ
[6] = test system: Candida albicans; experiment: Antifungal activity against Candida albicans MTCC 227 at 100 ug after 48 hrs by agar well diffusion method; type: functional; details: MTCC 227, 48 h, read-out: DIZ
[7] = test system: Bacillus subtilis; experiment: Antimicrobial activity against Bacillus subtilis MTCC 441 by broth dilution method; type: functional
[8] = test system: Escherichia coli; experiment: Antimicrobial activity against Escherichia coli MTCC 443 by broth dilution method; type: functional
[9] = test system: Staphylococcus aureus; experiment: Antimicrobial activity against Staphylococcus aureus MTCC 96 by broth dilution method; type: functional
[10] = test system: Aspergillus flavus; experiment: Antifungal activity against Aspergillus flavus at 100 ug after 48 hrs by agar well diffusion method; details: read-out: DIZ
[11] = test system: Saccharomyces cerevisiae; experiment: Antifungal activity against Saccharomyces cerevisiae MTCC 36 at 100 ug after 48 hrs by agar well diffusion method; type: functional; details: MTCC 36, 48 h, read-out: DIZ
[12] = test system: Aspergillus flavus; experiment: Antifungal activity against Aspergillus flavus at 150 ug after 48 hrs by agar well diffusion method; details: read-out: DIZ
[13] = test system: Klebsiella pneumoniae; experiment: Antimicrobial activity against Klebsiella pneumoniae MTCC 618 by broth dilution method; type: functional
[14] = test system: Candida albicans; experiment: Antifungal activity against Candida albicans MTCC 227 at 150 ug after 48 hrs by agar well diffusion method; type: functional; details: MTCC 227, 48 h, read-out: DIZ
[15] = test system: Saccharomyces cerevisiae; experiment: Antifungal activity against Saccharomyces cerevisiae MTCC 36 at 50 ug after 48 hrs by agar well diffusion method; type: functional; details: MTCC 36, 48 h, read-out: DIZ
[16] = test system: Diutina rugosa; experiment: Antifungal activity against Candida rugosa at 50 ug after 48 hrs by agar well diffusion method; type: functional; details: read-out: DIZ
[17] = test system: Aspergillus flavus; experiment: Antifungal activity against Aspergillus flavus at 50 ug after 48 hrs by agar well diffusion method; details: read-out: DIZ
[18] = test system: Candida albicans; experiment: Antifungal activity against Candida albicans MTCC 227 at 50 ug after 48 hrs by agar well diffusion method; type: functional; details: MTCC 227, 48 h, read-out: DIZ

Row | Compound | MIC [1] [µg/mL] | MIC [4] [µg/mL] | MIC [7] [µg/mL] | MIC [8] [µg/mL] | MIC [9] [µg/mL] | MIC [13] [µg/mL] | zone of inhibition at 100 µg/disc [2] [mm] | zone of inhibition at 150 µg/disc [3] [mm] | zone of inhibition at 150 µg/disc [5] [mm] | zone of inhibition at 100 µg/disc [6] [mm] | zone of inhibition at 100 µg/disc [10] [mm] | zone of inhibition at 100 µg/disc [11] [mm] | zone of inhibition at 150 µg/disc [12] [mm] | zone of inhibition at 150 µg/disc [14] [mm] | zone of inhibition at 50 µg/disc [15] [mm] | zone of inhibition at 50 µg/disc [16] [mm] | zone of inhibition at 50 µg/disc [17] [mm] | zone of inhibition at 50 µg/disc [18] [mm]
1 | N#Cc1ccc2[nH]cc(C(C(=O)c3ccccc3)C3C(=O)Nc4ccccc43)c2c1 (stereo unspecified) | 150 (≈ 383 µM) | 150 (≈ 383 µM) | 150 (≈ 383 µM) | 150 (≈ 383 µM) | 150 (≈ 383 µM) | 150 (≈ 383 µM) | 8 | 0 | 11 | 0 | 0 | 0 | 0 | 0 | – | – | – | –
2 | Cc1[nH]c2ccc([N+](=O)[O-])cc2c1C(C(=O)c1ccccc1)C1C(=O)Nc2ccccc21 (stereo unspecified) | 150 (≈ 353 µM) | 150 (≈ 353 µM) | 150 (≈ 353 µM) | 150 (≈ 353 µM) | 150 (≈ 353 µM) | 150 (≈ 353 µM) | 0 | 0 | 0 | 0 | 0 | 0 | 0 | 0 | – | – | – | –
3 | O=C1Nc2ccccc2C1C(C(=O)c1ccccc1)c1c[nH]c2ccc(Br)cc12 (stereo unspecified) | 18.8 (≈ 42.1 µM) | 150 (≈ 337 µM) | 150 (≈ 337 µM) | 150 (≈ 337 µM) | 150 (≈ 337 µM) | 150 (≈ 337 µM) | 0 | 0 | 15 | 0 | 0 | 0 | 0 | 0 | – | – | – | –
4 | COC(=O)c1ccc2[nH]cc(C(C(=O)c3ccccc3)C3C(=O)Nc4ccccc43)c2c1 (stereo unspecified) | 18.8 (≈ 44.2 µM) | 150 (≈ 353 µM) | 150 (≈ 353 µM) | 150 (≈ 353 µM) | 75 (≈ 177 µM) | 150 (≈ 353 µM) | 10 | 0 | 15 | 0 | 0 | 0 | 0 | 0 | – | – | – | –
5 | Cc1[nH]c2ccccc2c1C(C(=O)c1ccccc1)C1C(=O)Nc2ccccc21 (stereo unspecified) | 18.8 (≈ 49.3 µM) | 150 (≈ 394 µM) | 150 (≈ 394 µM) | 150 (≈ 394 µM) | 37.5 (≈ 98.6 µM) | 150 (≈ 394 µM) | 9 | 0 | 13 | 0 | 0 | 0 | 0 | 0 | – | – | – | –
6 | C[C@@H]1[C@H](O)[C@@H](C)/C=C/C=C/C=C/C=C/C=C/C=C/C=C/[C@H](O[C@@H]2O[C@H](C)[C@@H](O)[C@H](N)[C@@H]2O)C[C@@H]2O[C@](O)(C[C@@H](O)C[C@@H](O)[C@H](O)CC[C@@H](O)C[C@@H](O)CC(=O)O[C@H]1C)C[C@H](O)[C@H]2C(=O)O [AMPHOTERICIN B] | – | – | – | – | – | – | – | – | – | – | – | – | – | – | 22 | 21 | 25 | 23.5
7 | CN[C@@H]1[C@H](O[C@H]2[C@H](O[C@H]3[C@H](O)[C@@H](O)[C@H](N=C(N)N)[C@@H](O)[C@@H]3N=C(N)N)O[C@@H](C)[C@]2(O)C=O)O[C@@H](CO)[C@H](O)[C@H]1O [STREPTOMYCIN] | 1.56 (≈ 2.69 µM) | 3.12 (≈ 5.37 µM) | 6.25 (≈ 10.7 µM) | 6.25 (≈ 10.7 µM) | 6.25 (≈ 10.7 µM) | 3.12 (≈ 5.37 µM) | – | – | – | – | – | – | – | – | – | – | – | –

The remaining compounds from weak to strong by MIC [1], led by results:

Row | MIC [1] [µg/mL] | MIC [4] [µg/mL] | MIC [7] [µg/mL] | MIC [8] [µg/mL] | MIC [9] [µg/mL] | MIC [13] [µg/mL] | Compound | zone of inhibition at 100 µg/disc [2] [mm] | zone of inhibition at 150 µg/disc [3] [mm] | zone of inhibition at 150 µg/disc [5] [mm] | zone of inhibition at 100 µg/disc [6] [mm] | zone of inhibition at 100 µg/disc [10] [mm] | zone of inhibition at 100 µg/disc [11] [mm] | zone of inhibition at 150 µg/disc [12] [mm] | zone of inhibition at 150 µg/disc [14] [mm] | zone of inhibition at 50 µg/disc [15] [mm] | zone of inhibition at 50 µg/disc [16] [mm] | zone of inhibition at 50 µg/disc [17] [mm] | zone of inhibition at 50 µg/disc [18] [mm]
8 | 18.8 (≈ 49.3 µM) | 150 (≈ 394 µM) | 150 (≈ 394 µM) | 150 (≈ 394 µM) | 150 (≈ 394 µM) | 150 (≈ 394 µM) | Cn1cc(C(C(=O)c2ccccc2)C2C(=O)Nc3ccccc32)c2ccccc21 (stereo unspecified) | 10 | 0 | 16 | 0 | 0 | 0 | 0 | 0 | – | – | – | –
9 | 12.5 (≈ 37.4 µM) | 3.12 (≈ 9.35 µM) | 1.56 (≈ 4.67 µM) | 12.5 (≈ 37.4 µM) | 1.56 (≈ 4.67 µM) | 6.25 (≈ 18.7 µM) | CC1(C)S[C@@H]2[C@H](NC(=O)Cc3ccccc3)C(=O)N2[C@H]1C(=O)O [PENICILLIN G] | – | – | – | – | – | – | – | – | – | – | – | –
10 | 9.38 (≈ 25.6 µM) | 150 (≈ 409 µM) | 75 (≈ 205 µM) | 150 (≈ 409 µM) | 75 (≈ 205 µM) | 150 (≈ 409 µM) | O=C1Nc2ccccc2C1C(C(=O)c1ccccc1)c1c[nH]c2ccccc12 (stereo unspecified) | 11 | 0 | 16 | 0 | 0 | 0 | 0 | 0 | – | – | – | –
11 | 9.38 (≈ 22.8 µM) | 150 (≈ 365 µM) | 75 (≈ 182 µM) | 150 (≈ 365 µM) | 150 (≈ 365 µM) | 150 (≈ 365 µM) | O=C1Nc2ccccc2C1C(C(=O)c1ccccc1)c1c[nH]c2ccc([N+](=O)[O-])cc12 (stereo unspecified) | 0 | 0 | 0 | 0 | 0 | 0 | 0 | 0 | – | – | – | –
12 | 9.38 (≈ 23.4 µM) | 75 (≈ 187 µM) | 150 (≈ 374 µM) | 150 (≈ 374 µM) | 18.8 (≈ 46.8 µM) | 150 (≈ 374 µM) | O=C1Nc2ccccc2C1C(C(=O)c1ccccc1)c1c[nH]c2ccc(Cl)cc12 (stereo unspecified) | 13 | 0 | 17 | 0 | 0 | 0 | 0 | 0 | – | – | – | –
13 | 9.38 (≈ 21.2 µM) | 75 (≈ 169 µM) | 150 (≈ 339 µM) | 150 (≈ 339 µM) | 75 (≈ 169 µM) | 150 (≈ 339 µM) | O=C1Nc2ccccc2C1C(C(=O)c1ccccc1)c1c(-c2ccccc2)[nH]c2ccccc12 (stereo unspecified) | 12 | 0 | 17 | 0 | 0 | 0 | 0 | 0 | – | – | – | –
